Test system: hepatocytes
Assay: RNA-seq of hepatocytes treated with Phase III failure compounds
Settings: hepatocytes
Procedure: RNA-seq was performed to determine the effects of the compounds on hepatocytes.
Significance was determined by the criteria of FPKM≥0.5, a log 2(fold-change)≥1, and a […].

CCC(CC)[C@H](NC(C)=O)[C@@H]1[C@H](O)[C@@H](C(=O)O)C[C@H]1NC(=N)N.O.O.O [peramivir (trihydrate), peramivir]
RNA-seq results: BCKDK expression (gene BCKDK): −0.14 | RNA-seq results: BCO1 expression (gene BCO1): −0.07 | RNA-seq results: BCR expression (gene BCR): −0.02 | RNA-seq results: BLNK expression (gene BLNK): −0.02 | RNA-seq results: BLOC1S3 expression (gene BLOC1S3): 0.01 | RNA-seq results: BMPR1A expression (gene BMPR1A): −0.14 | RNA-seq results: BRAF expression (gene BRAF): −0.13 | RNA-seq results: BSCL2 expression (gene BSCL2): −1.57 | RNA-seq results: BTD expression (gene BTD): −0.14 | RNA-seq results: C4A expression (gene C4A): 0.79 | RNA-seq results: C9 expression (gene C9): −0.57 | RNA-seq results: C10orf10 expression (gene C10orf10): 0.08 | RNA-seq results: C10orf11 expression (gene C10orf11): −0.18 | RNA-seq results: C15orf41 expression (gene C15orf41): −0.25 | RNA-seq results: CA2 expression (gene CA2): −0.12 | RNA-seq results: CA5A expression (gene CA5A): 0.03 | RNA-seq results: CA12 expression (gene CA12): −0.29 | RNA-seq results: CAV1 expression (gene CAV1): −0.36 | RNA-seq results: CCND1 expression (gene CCND1): −0.01 | RNA-seq results: CD46 expression (gene CD46): −0.29 | RNA-seq results: CD81 expression (gene CD81): −0.08 | RNA-seq results: CD320 expression (gene CD320): −0.01 | RNA-seq results: CDAN1 expression (gene CDAN1): 0.23 | RNA-seq results: CDH1 expression (gene CDH1): 0.05 | RNA-seq results: CEP19 expression (gene CEP19): −0.09 | RNA-seq results: CEP83 expression (gene CEP83): −0.20 | RNA-seq results: CEP164 expression (gene CEP164): 0.39 | RNA-seq results: CEP290 expression (gene CEP290): −0.30 | RNA-seq results: CFB expression (gene CFB): −0.13 | RNA-seq results: CFHR2 expression (gene CFHR2): −0.38 | RNA-seq results: CHRM3 expression (gene CHRM3): −0.12 | RNA-seq results: CIDEC expression (gene CIDEC): −0.45 | RNA-seq results, CLDN1 expression (gene CLDN1): −0.36 | RNA-seq results, COG1 expression (gene COG1): −0.10 | RNA-seq results, COG5 expression (gene COG5): −0.36 | RNA-seq results: COG5 expression (gene COG5): −0.22 | RNA-seq results, COG6 expression (gene COG6): −0.54 | RNA-seq results: COG6 expression (gene COG6): −0.08 | RNA-seq results, COL1A1 expression (gene COL1A1): 0.33 | RNA-seq results: COL1A1 expression (gene COL1A1): 0.09 | RNA-seq results, COX6A1 expression (gene COX6A1): 0.39 | RNA-seq results: COX6A1 expression (gene COX6A1): −0.01 | RNA-seq results, CP expression (gene CP): −0.09 | RNA-seq results: CP expression (gene CP): −0.27 | RNA-seq results, CPS1 expression (gene CPS1): 0.01 | RNA-seq results: CPS1 expression (gene CPS1): −0.63 | RNA-seq results, CPT1A expression (gene CPT1A): −0.10 | RNA-seq results: CPT1A expression (gene CPT1A): 0.13 | RNA-seq results, CPT2 expression (gene CPT2): −0.19 | RNA-seq results: CPT2 expression (gene CPT2): 0.05 | RNA-seq results, CROT expression (gene CROT): −0.25 | RNA-seq results: CROT expression (gene CROT): −0.4 | RNA-seq results, CSPP1 expression (gene CSPP1): −0.06 | RNA-seq results: CSPP1 expression (gene CSPP1): −0.05 | RNA-seq results, CTC1 expression (gene CTC1): 0.10 | RNA-seq results: CTC1 expression (gene CTC1): 0.2 | RNA-seq results, CTDSP2 expression (gene CTDSP2): 0.00 | RNA-seq results: CTDSP2 expression (gene CTDSP2): −0.07 | RNA-seq results, CTH expression (gene CTH): 0.06 | RNA-seq results: CTH expression (gene CTH): 0.6 | RNA-seq results, CTNS expression (gene CTNS): −0.25 | RNA-seq results: CTNS expression (gene CTNS): 0.65 | RNA-seq results, CTSF expression (gene CTSF): 0.21 | RNA-seq results: CTSF expression (gene CTSF): 0.3 | RNA-seq results, CTSK expression (gene CTSK): 0.28 | RNA-seq results: CTSK expression (gene CTSK): 0.04 | RNA-seq results, CYB5A expression (gene CYB5A): 0.01 | RNA-seq results: CYB5A expression (gene CYB5A): 0.34 | RNA-seq results, CYB5R3 expression (gene CYB5R3): 0.00 | RNA-seq results: CYB5R3 expression (gene CYB5R3): 0.13 | RNA-seq results, CYP2B6 expression (gene CYP2B6): 0.07 | RNA-seq results: CYP2B6 expression (gene CYP2B6): 0.12 | RNA-seq results, CYP2C19 expression (gene CYP2C19): 0.25 | RNA-seq results: CYP2C19 expression (gene CYP2C19): −0.31 | RNA-seq results, CYP2D6 expression (gene CYP2D6): 0.24 | RNA-seq results: CYP2D6 expression (gene CYP2D6): 0.22 | RNA-seq results, CYP3A4 expression (gene CYP3A4): −0.53 | RNA-seq results: CYP3A4 expression (gene CYP3A4): 0.77 | RNA-seq results, CYP7B1 expression (gene CYP7B1): −0.16 | RNA-seq results: CYP7B1 expression (gene CYP7B1): −0.34 | RNA-seq results, CYP27A1 expression (gene CYP27A1): −0.21 | RNA-seq results: CYP27A1 expression (gene CYP27A1): 0.28 | RNA-seq results, CYP39A1 expression (gene CYP39A1): −0.20 | RNA-seq results: CYP39A1 expression (gene CYP39A1): −0.11 | RNA-seq results, DAO expression (gene DAO): 0.00 | RNA-seq results: DAO expression (gene DAO): 0.13 | RNA-seq results, DBT expression (gene DBT): −0.24 | RNA-seq results: DBT expression (gene DBT): −0.32 | RNA-seq results, DCDC2 expression (gene DCDC2): −0.04 | RNA-seq results: DCDC2 expression (gene DCDC2): −0.6 | RNA-seq results, DCXR expression (gene DCXR): −0.20 | RNA-seq results: DCXR expression (gene DCXR): 0.16 | RNA-seq results, DDC expression (gene DDC): −0.41 | RNA-seq results: DDC expression (gene DDC): −0.25 | RNA-seq results, DDO expression (gene DDO): 0.12 | RNA-seq results: DDO expression (gene DDO): 0.12 | RNA-seq results, DENR expression (gene DENR): −0.36 | RNA-seq results: DENR expression (gene DENR): −0.13 | RNA-seq results, DHCR7 expression (gene DHCR7): 0.04 | RNA-seq results: DHCR7 expression (gene DHCR7): 0.32 | RNA-seq results, DHCR24 expression (gene DHCR24): −0.16 | RNA-seq results: DHCR24 expression (gene DHCR24): −0.14 | RNA-seq results, DHODH expression (gene DHODH): 0.27 | RNA-seq results: DHODH expression (gene DHODH): 0.22 | RNA-seq results, DIS3L2 expression (gene DIS3L2): −0.14 | RNA-seq results: DIS3L2 expression (gene DIS3L2): −0.14 | RNA-seq results, DKC1 expression (gene DKC1): −0.11 | RNA-seq results: DKC1 expression (gene DKC1): −0.05 | RNA-seq results, DLAT expression (gene DLAT): −0.15 | RNA-seq results: DLAT expression (gene DLAT): −0.21 | RNA-seq results, DLD expression (gene DLD): −0.35 | RNA-seq results: DLD expression (gene DLD): −0.3 | RNA-seq results, DMGDH expression (gene DMGDH): −0.11 | RNA-seq results: DMGDH expression (gene DMGDH): −0.15 | RNA-seq results, DNAH5 expression (gene DNAH5): −0.05 | RNA-seq results: DNAH5 expression (gene DNAH5): −0.1 | RNA-seq results, DNM1L expression (gene DNM1L): −0.28 | RNA-seq results: DNM1L expression (gene DNM1L): −0.12 | RNA-seq results, DOLK expression (gene DOLK): 0.09

From patent US20210254056A1, “IDENTIFICATION AND TARGETED MODULATION OF GENE SIGNALING NETWORKS” (CAMP4 THERAPEUTICS CORPORATION, priority 2017, published 2021)
